Test systems include MDA-MB-435; OVCAR-8 ovarian; SR leukemia; MOLT-4 leukemia; SK-MEL-5 melanoma; OVCAR-4 ovarian; CCRF-CEM leukemia; SF-295 CNS; CAKI-1 renal; HCT-15 colon; SNB-19 CNS; DU-145 prostate; UO-31 renal; SK-OV-3 ovarian; IGROV1 ovarian; HOP-92 NSCLC; SK-MEL-2 melanoma; NCI-H522 lung; T-47D breast.
What all share (test): NCI-60 cell line screen, 48 h

Where “and” joins values, the source holds several entries; their conditions need not be identical. Identical values can stand only once.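 Values below derive from 48-hour exposures of cells grown in 96-well plates, with endpoints linearly interpolated between the two concentrations bracketing the appropriate inhibition level. TGI: total growth inhibition.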

Turning to `C(=Nc1ccc(-c2cc(-c3ccccc3)nc3ccc4ccccc4c23)cc1)c1ccccc1`, the TGI was 55.5 µM in the assay on MDA-MB-435; above 100 µM in the assay on OVCAR-8 ovarian; above 100 µM in the assay with SR leukemia; above 100 µM in the assay on MOLT-4 leukemia; 42.3 µM in the assay on SK-MEL-5 melanoma; 13.5 µM with OVCAR-4 ovarian. Further, the TGI in the assay on CCRF-CEM leukemia is above 100 µM; in the assay with SF-295 CNS, 48.8 µM; in the assay with CAKI-1 renal it was 75.4 µM; in the assay with HCT-15 colon, above 100 µM; in the assay on SNB-19 CNS, 58 µM; with DU-145 prostate, 68.6 µM. The TGI in the assay on UO-31 renal is 73.1 µM; in the assay on SK-OV-3 ovarian, above 100 µM; in the assay with IGROV1 ovarian, above 100 µM.
As for `COc1cc(C2c3cc4c(cc3[C@@H](NCCN3CCCCC3)C3COC(=O)[C@H]23)OCO4)cc(OC)c1O` (stereo partly specified), the TGI is 0.84 µM and 1.64 µM in the assay on HOP-92 NSCLC; 2.45 µM and 3.41 µM in the assay on OVCAR-8 ovarian; 4.92 µM and 4.65 µM in the assay with SK-MEL-2 melanoma; 0.0735 µM and 0.0311 µM in the assay on MOLT-4 leukemia; 1.93 µM and 2.19 µM in the assay with SK-MEL-5 melanoma; above 100 µM in the assay on OVCAR-4 ovarian. Besides, the TGI is 0.36 µM and 0.465 µM in the assay with CCRF-CEM leukemia; 0.881 µM in the assay on SF-295 CNS; 2.26 µM and 2.15 µM in the assay on HCT-15 colon; > 100 µM and 36.7 µM with SNB-19 CNS; 1.8 µM and 1.99 µM with UO-31 renal; 0.877 µM and 0.484 µM with SK-OV-3 ovarian. For the same molecule, the TGI in the assay on IGROV1 ovarian was 4.56 µM and 7.55 µM.
For the molecule `O=c1[nH]c(=O)n(COCCO)c2ccc(Br)cc12`, the TGI in the assay with HOP-92 NSCLC, in the assay on MDA-MB-435, in the assay on OVCAR-8 ovarian, with SK-MEL-2 melanoma, in the assay with SR leukemia and in the assay on MOLT-4 leukemia was above 100 µM in each case. In addition, the TGI in the assay on SK-MEL-5 melanoma, in the assay on OVCAR-4 ovarian, with CCRF-CEM leukemia, in the assay on SF-295 CNS, in the assay with CAKI-1 renal and with HCT-15 colon was above 100 µM each time. In addition, the TGI in the assay with SNB-19 CNS, with DU-145 prostate, with UO-31 renal, in the assay on SK-OV-3 ovarian and in the assay with IGROV1 ovarian was above 100 µM each time.
As for `CCn1c2ccccc2c2ccc3c(c21)C(=O)c1ccccc1C3=O`, the TGI in the assay on HOP-92 NSCLC, with OVCAR-8 ovarian, in the assay on SR leukemia, in the assay with NCI-H522 lung, with MOLT-4 leukemia and in the assay on SK-MEL-5 melanoma was above 100 µM in each case. Besides, the TGI in the assay with OVCAR-4 ovarian, with CCRF-CEM leukemia, with SF-295 CNS, with HCT-15 colon, in the assay with SNB-19 CNS and with UO-31 renal was above 100 µM throughout. For the same molecule, the TGI in the assay on SK-OV-3 ovarian and in the assay with IGROV1 ovarian was above 100 µM each time.
On to `OCC1OC(Oc2cc(O)cc(/C=C/c3ccc(O)cc3)c2)C(O)C(O)C1O` (stereo unspecified), for which the TGI with HOP-92 NSCLC, in the assay with MDA-MB-435, with OVCAR-8 ovarian, in the assay with SK-MEL-2 melanoma, with SR leukemia and with NCI-H522 lung was above 100 µM each time. Besides, the TGI with MOLT-4 leukemia, in the assay with SK-MEL-5 melanoma, with OVCAR-4 ovarian, in the assay on CCRF-CEM leukemia, with SF-295 CNS and in the assay with CAKI-1 renal was above 100 µM in each case. Further, the TGI with HCT-15 colon, with SNB-19 CNS, with DU-145 prostate, in the assay on UO-31 renal, in the assay on SK-OV-3 ovarian and with IGROV1 ovarian was above 100 µM in each case.
Consider `COc1cc(Cl)cc(N(O)C(C)=O)c1OCc1ccccc1`, for which the TGI with HOP-92 NSCLC, with OVCAR-8 ovarian, in the assay on SR leukemia, in the assay on NCI-H522 lung, in the assay on MOLT-4 leukemia and with SK-MEL-5 melanoma was above 100 µM throughout. Moreover, the TGI with OVCAR-4 ovarian, with CCRF-CEM leukemia, with SF-295 CNS, in the assay on CAKI-1 renal, in the assay with HCT-15 colon and with SNB-19 CNS was above 100 µM each time. Besides, the TGI with UO-31 renal, in the assay on SK-OV-3 ovarian and in the assay with IGROV1 ovarian was above 100 µM throughout.
Regarding `NC1=NNC2(C(=O)N1)c1ccccc1-c1ccccc12`, the TGI in the assay with HOP-92 NSCLC, in the assay with OVCAR-8 ovarian, in the assay with SK-MEL-2 melanoma, in the assay with SR leukemia, in the assay with MOLT-4 leukemia and in the assay with SK-MEL-5 melanoma was above 10 µM each time. Also, the TGI in the assay with T-47D breast, in the assay with CCRF-CEM leukemia, with SF-295 CNS, in the assay on CAKI-1 renal, in the assay on HCT-15 colon and with SNB-19 CNS was above 10 µM throughout. Further, the TGI in the assay on UO-31 renal, in the assay with SK-OV-3 ovarian and in the assay with IGROV1 ovarian was above 10 µM in each case.
As for `COc1ccc(N(C)Sc2ccccc2)cc1`, the TGI in the assay on HOP-92 NSCLC is above 100 µM; in the assay with OVCAR-8 ovarian it was above 100 µM; in the assay with SK-MEL-2 melanoma it was above 100 µM; in the assay on SR leukemia, above 100 µM; in the assay on NCI-H522 lung it was above 100 µM; in the assay with MOLT-4 leukemia, 75.6 µM. The TGI in the assay with SK-MEL-5 melanoma is above 100 µM; in the assay on CCRF-CEM leukemia, 58.6 µM; in the assay on SF-295 CNS it was above 100 µM; in the assay with HCT-15 colon, above 100 µM; with SNB-19 CNS it was above 100 µM; with UO-31 renal it was above 100 µM. Further, the TGI with SK-OV-3 ovarian and in the assay with IGROV1 ovarian was above 100 µM each time.
Take `CC(C)(C)[Si](C)(C)OCC1OC(n2ccc(=O)[nH]c2=O)C(O[Si](C)(C)C(C)(C)C)[C@@]12O[C@H]2C(N)=O` (stereo partly specified): the TGI in the assay on MDA-MB-435 is 23.1 µM; in the assay on OVCAR-8 ovarian it was 32.5 µM; with SK-MEL-2 melanoma, 34.6 µM; in the assay on NCI-H522 lung it was 7.35 µM; with MOLT-4 leukemia, above 100 µM; in the assay on SK-MEL-5 melanoma, 16.5 µM. The TGI amounted to 89.5 µM with OVCAR-4 ovarian; 17 µM with SF-295 CNS; 28.2 µM in the assay on CAKI-1 renal; 28.4 µM in the assay with HCT-15 colon; 24.1 µM in the assay on SNB-19 CNS; 17.6 µM in the assay with DU-145 prostate. Besides, the TGI in the assay on UO-31 renal is 19.6 µM; in the assay with SK-OV-3 ovarian, 36.6 µM; in the assay with IGROV1 ovarian, 8.66 µM.

Source of the values: PubChem BioAssay (NCI).
